From patent US20120184517A1, “TREATMENT OF DISEASES WITH ALTERED SMOOTH MUSCLE CONTRACTILITY” (priority 2009, published 2012)
Values after ≈ are worked out from the molar mass of the structure shown.

Assays:
[1] = target: T1, BKCa channel α (mSlo) and β1 subunits (Mus musculus, UniProt Q08460); experiment: Whole cell recording of HEK cells co-expressing α and β1 subunits; assay type: cell-based; conditions: HEK293 cells expressing both mSlo and β1 subunit
T1 construct: expressed in transfected cells; host or cells: HEK293
T1 sequence (Q08460 whole entry): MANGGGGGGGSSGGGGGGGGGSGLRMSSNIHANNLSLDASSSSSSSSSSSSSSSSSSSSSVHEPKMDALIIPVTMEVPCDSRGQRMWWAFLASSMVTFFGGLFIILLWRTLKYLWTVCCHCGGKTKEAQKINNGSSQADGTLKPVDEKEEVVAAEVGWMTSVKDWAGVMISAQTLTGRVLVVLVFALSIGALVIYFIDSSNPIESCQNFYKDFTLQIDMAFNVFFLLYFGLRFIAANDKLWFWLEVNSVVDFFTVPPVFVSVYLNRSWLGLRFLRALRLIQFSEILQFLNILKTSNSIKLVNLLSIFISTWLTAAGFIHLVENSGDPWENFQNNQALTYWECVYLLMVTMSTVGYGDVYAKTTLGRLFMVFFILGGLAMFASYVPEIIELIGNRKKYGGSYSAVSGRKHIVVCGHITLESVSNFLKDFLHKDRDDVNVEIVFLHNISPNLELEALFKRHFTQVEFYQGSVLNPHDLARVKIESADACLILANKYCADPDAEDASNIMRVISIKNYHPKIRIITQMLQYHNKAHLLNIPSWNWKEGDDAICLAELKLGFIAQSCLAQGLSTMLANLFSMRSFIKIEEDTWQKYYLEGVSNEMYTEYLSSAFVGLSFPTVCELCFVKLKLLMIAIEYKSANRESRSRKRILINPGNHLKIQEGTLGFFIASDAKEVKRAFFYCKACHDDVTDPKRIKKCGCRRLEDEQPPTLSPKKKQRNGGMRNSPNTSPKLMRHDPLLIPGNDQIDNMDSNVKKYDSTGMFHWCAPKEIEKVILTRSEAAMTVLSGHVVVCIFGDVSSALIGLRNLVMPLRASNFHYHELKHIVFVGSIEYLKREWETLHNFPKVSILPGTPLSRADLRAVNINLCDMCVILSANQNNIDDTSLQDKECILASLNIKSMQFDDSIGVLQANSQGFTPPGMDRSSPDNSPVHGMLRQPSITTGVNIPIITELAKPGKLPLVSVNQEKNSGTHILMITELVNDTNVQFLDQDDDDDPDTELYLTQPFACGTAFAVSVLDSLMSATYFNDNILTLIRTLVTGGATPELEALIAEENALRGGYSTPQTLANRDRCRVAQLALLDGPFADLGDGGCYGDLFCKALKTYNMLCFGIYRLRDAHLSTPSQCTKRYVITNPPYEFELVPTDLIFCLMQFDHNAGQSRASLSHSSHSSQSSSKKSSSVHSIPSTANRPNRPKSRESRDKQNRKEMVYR
Method: Current was monitored with a ramp protocol; holding potential −60 mV, with ramp from −80 mV to +150 mV over 500 ms. Extracellular application of NS-1619 (10 μM) increased current as previously described (Olesen, et al., Selective activation of Ca^2+-dependent K^+ channels by novel benzimidazolone. Eur. J. Pharmacol., 1994. 251(1):53-9). […] Analysis was performed using tail analysis with normalization as previously described (Xia, et al., Multiple regulatory sites in large-conductance calcium-activated potassium channels. Nature, 2002. 418(6900):880-4). […] Identification of the BKCa channel was determined by conductance and inhibition by iberiotoxin and TEA. […] Murine femoral arterial rings were isolated and placed in a wire myograph. […] The figures shown are representative of 4 similar experiments. Error bars are standard error of the mean (SEM). Asterisk (*) indicates p<0.001.

[2] = test system: membrane potential of tracheal smooth muscle cells; experiment: Membrane potential measurement in tracheal smooth muscle cells; assay type: cell-based, mice
Method: (§1) In this experiment, murine tracheal smooth muscle cells were acutely isolated and whole cell patch clamped as previously described (Zakharov, S. et al., (2005) J Biol Chem 280, 30882-30887).
The membrane potential was recorded using perforated patch clamp technique.

WT tracheal rings = experiment: Isoproterenol-induced relaxation of WT tracheal rings on a myograph; assay type: cell-based, murine; conditions: rottlerin compared to PBS
Method: (n=4 each). Asterisk (*) indicates P<0.05 versus vehicle (DMSO). […] Cumulative dose-response curves of WT tracheal rings to isoproterenol in the absence and presence of 100 nM iberiotoxin (IbTX), a specific BK channel inhibitor. Values in graphs are means±standard deviation.
as §1
To dissect which (or both) β-AR pathways are responsible for the effects, tracheal rings were pre-incubated with either β1-AR antagonist (CGP 20712A; 100 nM) or a β2-AR antagonist (ICI 118551; 100 nM) or vehicle (DMSO). […] To confirm that the isoproterenol-induced relaxation was dependent upon BK channel-induced hyperpolarization, IbTX, a specific inhibitor of the BK channel, was used.

other PKC isozymes = conditions: cited from earlier work
[3] = target: mitogen- and stress-activated protein kinase 1 (MSK-1) (Homo sapiens, UniProt O75582); conditions: 20 μM; cited from earlier work
Sequence of mitogen- and stress-activated protein kinase 1 (MSK-1) (O75582 whole entry, species assumed): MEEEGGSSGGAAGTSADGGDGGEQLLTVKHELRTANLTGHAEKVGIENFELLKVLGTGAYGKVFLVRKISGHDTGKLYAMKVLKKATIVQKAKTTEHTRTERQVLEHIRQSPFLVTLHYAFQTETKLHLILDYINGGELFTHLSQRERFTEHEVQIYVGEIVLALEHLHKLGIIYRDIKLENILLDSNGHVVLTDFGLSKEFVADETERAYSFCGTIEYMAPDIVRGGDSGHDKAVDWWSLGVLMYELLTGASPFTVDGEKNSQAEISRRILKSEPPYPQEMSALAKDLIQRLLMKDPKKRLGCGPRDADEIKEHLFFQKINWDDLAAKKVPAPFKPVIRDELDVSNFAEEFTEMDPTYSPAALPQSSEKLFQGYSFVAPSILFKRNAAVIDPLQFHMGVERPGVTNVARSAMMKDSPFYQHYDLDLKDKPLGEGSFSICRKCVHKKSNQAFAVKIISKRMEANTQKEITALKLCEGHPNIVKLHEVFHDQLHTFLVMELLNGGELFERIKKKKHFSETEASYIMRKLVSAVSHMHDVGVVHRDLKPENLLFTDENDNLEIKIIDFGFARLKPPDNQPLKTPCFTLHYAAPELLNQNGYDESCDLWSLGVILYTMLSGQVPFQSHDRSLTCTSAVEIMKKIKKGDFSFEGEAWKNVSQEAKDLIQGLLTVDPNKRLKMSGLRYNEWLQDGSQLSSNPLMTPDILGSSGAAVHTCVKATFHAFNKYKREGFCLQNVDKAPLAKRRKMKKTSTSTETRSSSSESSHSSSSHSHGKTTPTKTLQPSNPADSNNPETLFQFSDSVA

Akt = Akt (Homo sapiens, UniProt P31749); conditions: 20 μM; cited from earlier work
Sequence of Akt (P31749 whole entry): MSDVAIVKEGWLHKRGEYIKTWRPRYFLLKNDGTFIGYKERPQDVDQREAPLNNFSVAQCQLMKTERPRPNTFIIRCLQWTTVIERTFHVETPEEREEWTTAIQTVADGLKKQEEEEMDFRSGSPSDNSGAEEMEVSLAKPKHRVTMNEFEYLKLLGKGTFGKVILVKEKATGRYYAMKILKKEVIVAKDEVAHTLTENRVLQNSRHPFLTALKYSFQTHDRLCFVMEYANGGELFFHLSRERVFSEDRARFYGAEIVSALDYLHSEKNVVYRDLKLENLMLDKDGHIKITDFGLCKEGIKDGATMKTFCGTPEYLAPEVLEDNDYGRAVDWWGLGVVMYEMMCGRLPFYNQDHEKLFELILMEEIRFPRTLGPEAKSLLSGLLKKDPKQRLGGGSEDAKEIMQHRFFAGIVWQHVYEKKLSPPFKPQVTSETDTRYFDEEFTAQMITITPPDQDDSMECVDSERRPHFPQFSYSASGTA

[4] = target: glycogen synthase kinase 3β (Homo sapiens, UniProt P49841); conditions: 20 μM; cited from earlier work
Sequence of glycogen synthase kinase 3β (P49841 whole entry): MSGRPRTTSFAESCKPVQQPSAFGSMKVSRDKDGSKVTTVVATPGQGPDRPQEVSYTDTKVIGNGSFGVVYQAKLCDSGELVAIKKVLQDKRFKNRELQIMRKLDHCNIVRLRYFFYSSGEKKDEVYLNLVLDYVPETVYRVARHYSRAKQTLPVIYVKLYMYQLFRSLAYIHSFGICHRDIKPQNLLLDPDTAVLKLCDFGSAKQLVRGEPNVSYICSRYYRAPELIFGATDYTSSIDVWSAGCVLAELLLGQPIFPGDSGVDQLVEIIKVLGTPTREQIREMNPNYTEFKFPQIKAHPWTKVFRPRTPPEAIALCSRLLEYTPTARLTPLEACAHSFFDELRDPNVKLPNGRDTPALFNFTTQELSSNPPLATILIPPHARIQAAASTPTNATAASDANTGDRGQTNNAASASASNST

[5] = test system: mitochondria in intact cells; conditions: cited from earlier work
[6] = test system: canine subarachnoid hemorrhage model; conditions: 5 μM injected into the cistera magna; cited from earlier work
[7] = target: glutamate-aspartate transporter (GLAST) (Homo sapiens, UniProt P43003); conditions: cited from earlier work
Sequence of glutamate-aspartate transporter (GLAST) (P43003 whole entry, species assumed): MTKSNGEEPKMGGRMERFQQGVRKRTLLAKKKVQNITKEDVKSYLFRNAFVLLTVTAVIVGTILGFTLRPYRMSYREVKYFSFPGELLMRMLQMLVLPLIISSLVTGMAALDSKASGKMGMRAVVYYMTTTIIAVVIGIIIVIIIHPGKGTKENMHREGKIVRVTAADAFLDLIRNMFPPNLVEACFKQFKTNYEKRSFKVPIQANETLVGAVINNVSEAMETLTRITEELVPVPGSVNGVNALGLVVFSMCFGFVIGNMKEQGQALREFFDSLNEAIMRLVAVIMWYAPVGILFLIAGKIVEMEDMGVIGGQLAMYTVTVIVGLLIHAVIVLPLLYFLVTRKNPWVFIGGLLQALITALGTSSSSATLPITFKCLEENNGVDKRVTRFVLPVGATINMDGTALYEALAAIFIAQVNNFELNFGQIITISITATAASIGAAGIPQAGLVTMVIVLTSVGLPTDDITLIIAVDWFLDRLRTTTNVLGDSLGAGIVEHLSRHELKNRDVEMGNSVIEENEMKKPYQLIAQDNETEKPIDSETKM

[8] = cited from earlier work
guinea pigs = conditions: 10-20 mg/kg/day×6 days; cited from earlier work

In the case of `CC(=O)c1c(O)c(C)c(O)c(Cc2c(O)c3c(c(C(=O)/C=C/c4ccccc4)c2O)OC(C)(C)C=C3)c1O` [rottlerin, 5,7-dihydroxy-2,2-dimethyl-6-(2,4,6-trihydroxy-3-methyl-5-acetylbenzyl)-8-cinnamoyl-I,2-chromene], the channel activation [1] is reported as “activated the channel”, the membrane potential ([2]; after rottlerin application (1 μM), FIGS. 11B and 11D) is reported as “significant hyperpolarization” and the membrane potential ([2]; perforated patch clamp, rottlerin 2 μM, FIG. 15) is reported as “significant hyperpolarization”. The ISO-induced relaxation (WT tracheal rings) was “enhanced the ISO-induced relaxation”, the IC50 (other PKC isozymes) was 30 to 100 µM and the inhibition [3] was 62%. For the same compound, the inhibition (Akt) was 73%, the inhibition [4] was 87% and the mitochondrial uncoupling ([5]; 10 μM) was “uncouple mitochondria”. The ATP levels ([5]; PKC independent) was “reduce ATP levels”, the cerebral vasospasm [6] was “inhibited the initial phase of cerebral vasospasm” and the “capacity of GLAST” value [7] was “decrease the capacity”. The “solubility in DMSO” value ([8]; DMSO) was 100 mM (≈ 51.7 mg/mL), the solubility in ethanol ([8]; ethanol) was 2 mM (≈ 1.03 mg/mL) and the fertility rate (guinea pigs) was “reduce the fertility rate”.
